Experimental data: patent US4650868A, “7-deazapurine derivatives useful as antitumor agents” (Takeda Chemical Industries, Ltd., priority 1984, dated 1987)
Values after ≈ are worked out from the molar mass of the structure shown.

Tests used:
[1] = tested on: rat liver tRNA-guanine transglycosylase; assay: Uptake of the compound into [3H]guanine-labeled tRNA; format: biochemical; conditions: 0.02 OD260 of compound, 37° C., 17 hours, [3H]guanine labeled tRNA (8000 cpm)
Protocol: [^3 H] guanine labeled tRNA*) (8000 cpm), 70 mM of […], 60 mM of magnesium chloride, 0.5 unit of rat liver tRNA-guanine transglycosylase and 0.02 OD260 of the compound obtained in Example 1 to be described hereinafter were prepared to the total volume of 100 μl, and the reaction was allowed to proceed at 37° C. for 17 hours. The reaction solution was applied to a Whatman 3 MM filter paper (produced by Whatman Co., U.S.A.), which was washed three times with a 5% aqueous solution of trichloroacetic acid and once successively with ethanol/ether (1:1) and ether alone.
(*) tRNA with the first letter of its anticodon labeled with [^3 H]-guanine.

L5178Y mouse tumor cells = assay: Growth inhibition of cultured L5178Y cells; format: cell-based; conditions: 72 hours incubation with drug, cell count, non-treated control = 100%, read-out: IC50 (50% growth inhibitory concentration)
Protocol: 1×10^4 L5178Y mouse tumor cells were suspended in 2 ml of a RPMI-1640 medium (produced by Nissui Pharmaceutical Co. of Japan) containing 10% of bovine fetal serum, 20 μM of 2-mercaptoethanol and 100 μg/ml of Kanamycin, and incubated at 37° C. for 24 hours before addition of the drug. Using the above culture fluid as a diluent, the compound as obtained in Example 3 to be described hereinafter was diluted 1/4-fold in a series of 5 stages and added to the culture medium in such a manner that the maximum concentration of the compound might be 200 μg/ml. The dilutions were further incubated for 72 hours, at the end of which time the cells were counted with use of a counter and the IC50 (50% growth inhibitory concentration) was calculated with the count for the non-treated control group being taken as 100%. The IC50 value was 2.0 μg/ml.

Meth A tumor cells = assay: Meth A tumor subcutaneously transplanted into BALB/c mouse; format: in vivo; conditions: 100 mg/kg intraperitoneally once a day for 14 consecutive days from day 4; tumor weight on 35th day after transplantation
Protocol: 5×10^4 Meth A tumor cells were subcutaneously transplanted into a BALB/c mouse weighing 20 g, and starting with the fourth day after transplantation, a solution of the compound as obtained in Example 3 to be described hereinafter in 0.1 ml of distilled water prepared in such a way that a dose might be 100 mg/kg was intraperitoneally injected into the mouse once a day for 14 consecutive days. On the 35th day after transplantation, the tumor node was enucleated and its weight (T) was measured.

| Compound | uptake of the test compound into tRNA [1] [%] | IC50 (L5178Y mouse tumor cells) [µg/mL] | tumor inhibition rate (T/C) (Meth A tumor cells) [%] |
| --- | --- | --- | --- |
| COc1ccccc1NCc1c[nH]c2nc(N)[nH]c(=O)c12 [Example 1, 2-amino-5-(2-methoxyphenylaminomethyl)pyrrolo[2,3-d]pyrimidin-4-one] | 120 |  |  |
| COc1cc(NCc2c[nH]c3nc(N)[nH]c(=O)c23)cc(OC)c1OC [Example 2 (2), 2-Amino-5-(3,4,5-trimethoxyphenylaminomethyl)pyrrolo[2,3-d]pyrimidin 4-one] | 140 |  |  |
| Nc1ccc(NCc2c[nH]c3nc(N)[nH]c(=O)c23)cc1 [Example 3, 2-amino-5-(4-aminophenylaminomethyl)pyrrolo[2,3-d]pyrimidin-4-one] |  | 2 (≈ 7.4 µM) | 36 |
